Results taken from patent publication US20170246144A1, “METHOD OF PREVENTING OR TREATING SPINOCEREBELLAR ATAXIA BY ADMINISTRATING SILIBININ” (National Taiwan Normal University, priority 2016, published 2017).

Tests used:
SH-SY5Y cells [1] = assay: JC-1 flow cytometry of mitochondria membrane potential (MMP); type: cell-based, Human; conditions: 15 μM + 100 mM MSG
Experimental: FIGS. 7A and 7B show the effects of SB on mitochondria membrane potential (MMP) in SH-SY5Y cells treated with MSG measured by JC-1 staining with a flow cytometry, wherein the control group (Ctrl) was untreated SH-SY5Y cells or the cells were treated with 100 mM MSG, 100 mM MSG+15 μM SB, 100 mM MSG+10 μM MK801 (MK) or 5 μM CCCP (disruptor of electron transport chain) for 12 hours. […] The results were shown as mean±SEM, n=3, *p<0.05, comparing to the MSG treatment group.
In the present embodiment, flow cytometry analysis was used to investigate whether silibinin can prevent the reduction of mitochondria membrane potential induced by glutamate in SH-SY5Y cells.
SH-SY5Y cells were seeded in 6 centimeter dish (1×10^6 cells/plate) for 24 hours, and then were pre-treated with 15 μM silibinin or 10 μM MK-801 for 1 hour followed by the treatment of 100 mM MSG for 12 hours. 5 μM carbonyl cyanide m-chlorophenylhydrazone (CCCP) was added to the positive control group to induce the depolarization of mitochondria membrane potential.
The treated cells were washed, centrifuged and collected, followed by PBS wash and JC-1 dye staining for 30 minutes. The stained cells were re-suspended using phosphate buffer solution and analyzed by a flow cytometry to obtain a 2-dimensional scatter plot. 10,000 cells were recorded for each experiment.

SH-SY5Y cells [2] = assay: Western blotting of calpain-2 and SBDP after MSG; type: cell-based, Human; conditions: 15 μM, 100 mM MSG, 6 hours
Experimental: The levels of calpain-2 and SBDPs were measured by western blotting in 1×10^6 SH-SY5Y cells, wherein the control group (Ctrl) was untreated SH-SY5Y cells or the cells were treated with 100 mM MSG, 100 mM MSG+15 μM SB or 100 mM MSG+10 μM MK801 (MK) for 6 hours. Actin was used as a loading control.
In present embodiment, western blotting was performed to study whether silibinin protects SH-SY5Y cell from apoptosis due to glutamatergic excitotoxicity via calcium-dependent apoptosis pathway.
Calpain-2, a thiol proteinase, is activated by the increases of intracellular free calcium ions and the reduction of Bcl-2 level. The level of SBDPs was elevated by calcium-induced calpain-2 in glutamate-induced cell death. Therefore, calpain-2 and SBDPs were used as indicators in the present embodiment.
SH-SY5Y cells were treated with silibinin at pre-determined concentrations or 10 μM MK801 for 1 hour followed by the treatment of 100 mM MSG. Western blotting was performed to analyze the levels of calpain-2 and SBDP.

COc1cc(C2Oc3cc([C@H]4Oc5cc(O)cc(O)c5C(=O)[C@@H]4O)ccc3OC2CO)ccc1O (stereo partly drawn) [silibinin]
MMP compared to Ctrl (SH-SY5Y cells [1]): 85+13% | reduction of SBDP level, compared to the increased level with MSG only (SH-SY5Y cells [2]): 250% | reduction of calpain-2 level, compared to the increased level with MSG only (SH-SY5Y cells [2]): 200%
